Results published in patent US7572800B2, “Combination therapy to treat hepatitis B virus” (Gilead Sciences, Inc., priority 1998, dated 2009).

Columns and labels:
HBV = assay: Antiviral evaluation: extracellular (virion) HBV DNA levels produced by 2.2.15 cells; format: cell-based, hepatitis B virus; conditions: for depression of extracellular (virion) HBV DNA levels: 9 consecutive daily doses
Description: Details of the assay methodology can be found in: Korba and Gerin, Antiviral Res. 19: 55-70 (1992) and Korba, Antiviral Res. 29: 49-52 (1996). The antiviral evaluations were performed on six separate cultures per each of four test concentrations. All wells, in all plates, were seeded at the same density and at the same time.
Due to the inherent variations in the levels of both intracellular and extracellular HBV DNA, only depressions greater than 3.0-fold for HBV virion DNA from the average levels for these HBV DNA forms in untreated cells are generally considered to be statistically significant [P<0.05] (Korba and Gerin, Antiviral Res. 19: 55-70, 1992). Typical values for extracellular HBV virion DNA in untreated cells range from 80 to 150 pg/ml culture medium (average of approximately 92 pg/ml).
For reference, the manner in which the hybridization analyses were performed for these experiments results in an equivalence of approximately 1.0 pg of extracellular HBV DNA/ml culture medium to 3×10^5 viral particles/ml.
For the antiviral test analyses, confluent cultures were maintained on 96-well flat bottomed tissue culture plates. Two separate (replicate) plates were used for each drug treatment. A total of 3 cultures on each plate were treated with each of the dilutions of antiviral agents (6 cultures per dilution). Cultures were treated with 9 consecutive daily doses of the test compounds. Medium was changed daily with fresh test compounds. Only extracellular (virion) HBV DNA levels were followed.

2.2.15 cells = assay: Toxicity analysis by uptake of neutral red dye; conditions: at the concentrations used for the antiviral evaluations
Description: Toxicity analysis were performed in 96-well flat bottomed tissue culture plates. Cells for the toxicity analyses were cultured and treated with test compounds with the same schedule and under identical culture conditions as used for the antiviral evaluations. Each compound was tested at 4 concentrations, each in triplicate cultures. Uptake of neutral red dye was used to determine the relative level of toxicity 24 hours following the last treatment. The absorbance of internalized dye at 510 nM (A510) was used for the quantative analysis. Values are presented as a percentage of the average A510 values (±standard deviations) in 9 separate cultures of untreated cells maintained on the same 96-well plate as the test compounds.

Cc1cn([C@H]2O[C@@H](CO)[C@H](O)[C@H]2F)c(=O)[nH]c1=O [L-FMAU, 2′-fluoro-5-methyl-β-L-arabinofuranolyluridine]
anti-HBV activity/potency compared with previous reports or earlier analyses (HBV): lower than that observed in earlier analyses
depression of extracellular (virion) HBV DNA levels (HBV): significant and selective depressions

Nc1ccn([C@@H]2CS[C@H](CO)O2)c(=O)n1 [3TC, (−)β,L,2′,3′-dideoxy-3′thiacytidine]
toxicity (greater than 50% depression of neutral red dye uptake levels observed in untreated cells) (2.2.15 cells): No significant toxicity

Nc1nc(N)c2ncn([C@H]3CO[C@@H](CO)O3)c2n1 [DAPD]
anti-HBV activity/potency compared with previous reports or earlier analyses (HBV): lower than that observed in earlier analyses
depression of extracellular (virion) HBV DNA levels (HBV): significant and selective depressions

Nc1nc2c(ncn2CCC(CO)CO)c(=O)[nH]1 [PCV, 2-amino-1,9-dihydro-9-[4-hydroxy-3-(hydroxymethyl)butyl]-6H-purin-6-one, reference compound]
anti-HBV activity/potency compared with previous reports or earlier analyses (HBV): higher than previously reported
depression of extracellular (virion) HBV DNA levels (HBV): significant depressions
toxicity (greater than 50% depression of neutral red dye uptake levels observed in untreated cells) (2.2.15 cells): No significant toxicity

Nc1nc2c(ncn2C2COC(CO)O2)c(=O)[nH]1 (stereo not drawn) [DXG]
depression of extracellular (virion) HBV DNA levels (HBV): significant and selective depressions

Nc1nc(=O)n([C@@H]2CS[C@H](CO)O2)cc1F [FTC, β-2-Hydroxymethyl-5-(5-fluorocytosin-1-yl)-1,3-oxathiolane]
anti-HBV activity/potency compared with previous reports or earlier analyses (HBV): lower than that observed in earlier analyses
depression of extracellular (virion) HBV DNA levels (HBV): significant and selective depressions
toxicity (greater than 50% depression of neutral red dye uptake levels observed in untreated cells) (2.2.15 cells): No significant toxicity
